We go through 1 compound from BindingDB's records for doi:10.1021/jm801306g (University of Alberta, 2009).

The IC50 is the concentration needed to halve the response being measured.

Test [1] concerns the target Trypanothione reductase (Trypanosoma cruzi, UniProt P28593). Kind of test: TryR Enzyme Inhibition Assay. Particulars: pH 7.5; 22 °C. How it is done: (§1) Inhibition of TryR was carried out in 96-well plates using a Biotek Precision 2000 automated liquid handler. Reaction was initiated by addition of NADPH to the assay mixtures contained TryR , trypanothione disulfide substrate, and inhibitor (100 uM to 10 nM in 3-fold serial dilutions). […] Raw data was processed using Microsoft Excel. Grafit 5.0 (Erithacus software) was used to fit the data to a three-parameter equation to determine IC50 values. IC50 determinations were carried out in triplicate for each compound and the mean weighted to standard error calculated.

Test [2] deals with Trypanothione reductase (Trypanosoma brucei brucei, UniProt P39051). Description: TryR Enzyme Inhibition Assay. How it is done:
as §1

Each structure is given as a SMILES string.

Trypanothione reductase (Trypanosoma cruzi, UniProt P28593), sequence (P28593 whole entry): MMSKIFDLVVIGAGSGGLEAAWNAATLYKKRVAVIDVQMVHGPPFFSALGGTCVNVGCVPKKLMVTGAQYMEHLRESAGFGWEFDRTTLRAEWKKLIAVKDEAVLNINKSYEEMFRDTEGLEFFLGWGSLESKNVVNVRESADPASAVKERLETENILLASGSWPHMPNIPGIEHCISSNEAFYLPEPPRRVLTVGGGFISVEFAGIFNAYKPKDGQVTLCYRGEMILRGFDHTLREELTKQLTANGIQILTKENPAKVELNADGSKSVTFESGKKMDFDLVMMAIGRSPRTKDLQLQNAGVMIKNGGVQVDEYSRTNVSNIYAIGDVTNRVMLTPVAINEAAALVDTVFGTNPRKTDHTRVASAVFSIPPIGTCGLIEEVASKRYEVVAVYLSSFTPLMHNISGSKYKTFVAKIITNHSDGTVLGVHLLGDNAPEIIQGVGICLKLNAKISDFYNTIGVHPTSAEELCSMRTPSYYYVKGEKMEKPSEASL
Trypanothione reductase (Trypanosoma brucei brucei, UniProt P39051), sequence (P39051 whole entry): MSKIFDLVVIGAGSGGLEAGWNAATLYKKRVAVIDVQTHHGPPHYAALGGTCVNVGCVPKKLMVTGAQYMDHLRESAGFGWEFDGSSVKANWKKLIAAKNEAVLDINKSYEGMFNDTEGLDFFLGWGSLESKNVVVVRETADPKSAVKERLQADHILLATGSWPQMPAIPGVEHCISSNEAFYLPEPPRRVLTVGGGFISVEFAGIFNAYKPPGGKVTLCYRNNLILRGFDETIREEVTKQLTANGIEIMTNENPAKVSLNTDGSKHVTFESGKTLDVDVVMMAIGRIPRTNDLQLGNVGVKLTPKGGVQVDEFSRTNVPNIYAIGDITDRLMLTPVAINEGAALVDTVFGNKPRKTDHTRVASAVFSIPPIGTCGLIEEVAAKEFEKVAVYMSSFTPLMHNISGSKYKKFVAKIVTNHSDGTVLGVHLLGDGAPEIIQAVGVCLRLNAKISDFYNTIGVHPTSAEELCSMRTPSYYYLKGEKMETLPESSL

`C[N+]1(Cc2ccccc2)CCC(NC=C2C(=O)NC(=O)N(C3CCCCC3)C2=O)CC1` (configuration not stated) [1-benzyl-4-[(E)-[(1-cyclohexyl-2,4,6-trioxo-1,3-diazinan-5-yl)methylidene]amino]-1-methylpiperidin-1-ium]: the IC50 in test [1] is 45.2 µM; in test [2], > 100 µM.
